Earlier results in article PMC7451048 (Drug metabolism letters, 2019).

Experiments:
[1] = co-administration of clopidogrel and ticlopidine; ref [25]; cited from earlier work
P-gp = P-gp (Homo sapiens, UniProt P08183); conditions: read-out: Km for P-gp; membrane vesicles isolated from human placenta; ref [61]; cited from earlier work
BCRP = target: T1, BCRP (Homo sapiens, UniProt Q9UNQ0); conditions: read-out: Km for BCRP; membrane vesicles isolated from human placenta; ref [61]; cited from earlier work
T1 sequence (Q9UNQ0 1-655): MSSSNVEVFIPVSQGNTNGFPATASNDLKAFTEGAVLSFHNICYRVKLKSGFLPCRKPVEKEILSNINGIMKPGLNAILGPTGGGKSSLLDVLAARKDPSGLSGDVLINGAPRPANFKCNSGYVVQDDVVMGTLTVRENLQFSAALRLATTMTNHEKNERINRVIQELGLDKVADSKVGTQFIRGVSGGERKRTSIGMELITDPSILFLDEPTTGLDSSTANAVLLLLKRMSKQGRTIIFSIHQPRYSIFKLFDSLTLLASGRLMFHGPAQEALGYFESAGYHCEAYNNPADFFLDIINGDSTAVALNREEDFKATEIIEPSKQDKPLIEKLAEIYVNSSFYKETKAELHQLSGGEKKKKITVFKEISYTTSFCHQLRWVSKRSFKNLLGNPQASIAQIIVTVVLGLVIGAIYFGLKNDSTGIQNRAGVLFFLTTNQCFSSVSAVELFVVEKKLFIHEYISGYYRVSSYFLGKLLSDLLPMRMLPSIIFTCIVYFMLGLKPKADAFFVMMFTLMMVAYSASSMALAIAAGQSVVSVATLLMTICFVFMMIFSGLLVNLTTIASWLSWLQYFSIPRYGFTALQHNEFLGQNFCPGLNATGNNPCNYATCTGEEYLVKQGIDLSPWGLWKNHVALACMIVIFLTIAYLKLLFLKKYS

Chain of P-gp (P08183 whole entry): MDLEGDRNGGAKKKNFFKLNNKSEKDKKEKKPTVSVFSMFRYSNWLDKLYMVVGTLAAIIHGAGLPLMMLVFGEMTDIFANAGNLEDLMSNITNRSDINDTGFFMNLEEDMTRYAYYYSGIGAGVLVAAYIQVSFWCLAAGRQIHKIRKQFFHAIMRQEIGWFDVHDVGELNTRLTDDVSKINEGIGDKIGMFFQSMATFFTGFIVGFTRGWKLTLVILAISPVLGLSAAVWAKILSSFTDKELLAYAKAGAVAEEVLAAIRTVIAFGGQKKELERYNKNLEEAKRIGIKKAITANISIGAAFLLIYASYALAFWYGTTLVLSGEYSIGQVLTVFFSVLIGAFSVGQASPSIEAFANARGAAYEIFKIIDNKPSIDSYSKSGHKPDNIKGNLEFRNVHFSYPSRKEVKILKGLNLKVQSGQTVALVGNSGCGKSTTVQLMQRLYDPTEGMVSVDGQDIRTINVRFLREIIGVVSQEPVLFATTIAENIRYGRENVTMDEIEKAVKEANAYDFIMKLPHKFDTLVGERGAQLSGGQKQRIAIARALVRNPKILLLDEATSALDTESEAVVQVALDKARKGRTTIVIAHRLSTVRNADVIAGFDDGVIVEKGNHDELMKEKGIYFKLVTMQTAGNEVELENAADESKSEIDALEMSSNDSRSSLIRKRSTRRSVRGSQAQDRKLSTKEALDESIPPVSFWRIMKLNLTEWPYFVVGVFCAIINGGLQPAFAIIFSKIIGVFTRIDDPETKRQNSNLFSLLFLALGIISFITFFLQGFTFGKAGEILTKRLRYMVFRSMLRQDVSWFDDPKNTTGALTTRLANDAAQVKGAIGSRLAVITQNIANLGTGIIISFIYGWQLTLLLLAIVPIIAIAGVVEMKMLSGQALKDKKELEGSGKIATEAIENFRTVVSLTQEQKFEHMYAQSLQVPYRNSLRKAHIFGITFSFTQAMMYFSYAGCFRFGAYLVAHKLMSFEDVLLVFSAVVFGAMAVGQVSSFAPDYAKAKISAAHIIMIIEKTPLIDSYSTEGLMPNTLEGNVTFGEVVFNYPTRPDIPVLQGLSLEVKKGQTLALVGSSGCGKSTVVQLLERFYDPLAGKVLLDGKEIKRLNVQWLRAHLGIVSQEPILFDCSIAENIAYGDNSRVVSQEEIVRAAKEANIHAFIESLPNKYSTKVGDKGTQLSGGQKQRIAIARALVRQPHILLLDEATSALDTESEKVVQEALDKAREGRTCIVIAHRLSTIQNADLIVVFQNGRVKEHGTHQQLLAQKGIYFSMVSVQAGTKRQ

CC(NC(C)(C)C)C(=O)c1cccc(Cl)c1 (stereo not shown) [BUP, Bupropion]
Difference in half-life [1]: no significant difference
Increase in systemic exposure (AUC) [1]: 36–61%
Km (P-gp): 0.5 µM
Km (BCRP): 3 µM
